# Data as given in patent US11072634B2, “Inhibitors of transglutaminases” (Zedira GmbH, priority 2016, dated 2021).
# Tested on: Htt-exon1-97Q transfected N2a-cells
# Assay: ELISA of huntingtin and isopeptide bonds in SDS-soluble and formic acid soluble cell extracts
# Format: cell-based, mouse
# Conditions: N2a Htt-exon1-97Q, 150 or 300 μM, both extracts
# Description: A) Detection of huntingtin (htt) in an ELISA-Assay. Microtiter plate wells were coated with SDS-soluble and formic acid solubilized extracts of Htt-exon1-97Q transfected N2a-cells grown in the presence of 150 and 300 μM TG2-inhibitor E22. Anti-Htt-antibody 1C2 (1:250, Millipore, MAB1574) was used as detection antibody, followed by a conventional ELISA-protocol.
# B) Detection of isopeptide bonds in an ELISA-Assay. Microtiter plate wells were coated with SDS-soluble and formic acid solubilized extracts of Htt-exon1-97Q transfected N2a-cells grown in the presence of 150 and 300 μM TG2-inhibitor E22. Antibody A023 (1:200, Zedira) recognizing N^ε-(γ-L-glutamyl)-L-lysine-isopeptide was used as detection antibody, followed by a conventional ELISA-protocol. […]
# SDS-soluble and formic acid soluble extracts were used subsequently for coating of 96-well micro-titer-plates. […] Extinction was measured at 450 nm in a plate reader device.
# In order to analyze the effect of E22 on huntingtin aggregation and cross-linking, Htt-exon1-97Q transfected N2a-cells were grown in presence of 150 or 300 μM TG2-blacker E22. SDS-soluble and formic acid soluble extracts were generated and huntingtin and cross-links (isopeptide bonds) were determined in an ELISA-format as described above.
smiles,measurement,value
"CCCCCNC(=O)C(=O)CC[C@H](NC(=O)[C@@H]1CCCN1C(C)=O)C(=O)Nc1cccn(CC(=O)NCC(CC)CC)c1=O [Compound E22, (S)-2-((S)-1-acetylpyrrolidine-2-carboxamido)-N1-(1-(2-(2-ethylbutylamino)-2-oxoethyl)-2-oxo-1,2-dihydropyridin-3-yl)-5-oxo-N6-pentylhexanediamide]",protein cross-linking (isopeptide bonds),reduces protein cross-linking in a dose dependent manner
